The structures appear in SMILES notation. Where two headings read alike, the source gives them in different places.

The experiment has as its system IRF3. The experiment can be described thus: IRF3 activation assay in THP-1 Dual cells. It counts as cell-based. The settings on record: Homo sapiens, read-out: THP1 IRF3 EC50. As for the experimental part: THP-1 Dual Cells (Invivogen) were maintained in RPMI1640 medium with addition of 10% FBS, 100 μg/ml zeocin, 10 μg/ml blasticidin. Cells were added in a 96-well flat bottom assay plate at 100,000 per well in 100 μL complete RPMI medium. Test compounds were prepared by serial dilution in complete RPMI medium and 100 μL test compounds were transferred to each corresponding well. The assay plate was incubated at 37° C., 5% CO2 for 24 hours. After the overnight incubation, 20 μL of the culture supernatants were collected, followed by addition of 180 μL of QUANTI-Blue (Invivogen) to assess IRF3 activity. The amount of IRF3 activation was assessed by reading the absorbance at 620-655 nm with a microplate reader 2 hours later. The culture supernatant from the untreated THP-1 cells was used as the negative control. EC50 determination was performed by fitting the curve of percent control activity versus the log of the compound concentration using the GraphPad Prism 6.0 software.

Regarding `CCn1nc(C)cc1C(=O)Nc1nc2cc(C(N)=O)cc(OCCCOC)c2n1C/C=C/Cn1c2nc(-c3cc(C)nn3CC)ncc2c2cc(C(N)=O)cc(OCCOCCOCCOCCC(=O)O)c21` [Example S59, (E)-3-(2-(2-(2-(6-carbamoyl-9-(4-(5-carbamoyl-2-(1-ethyl-3-methyl-1H-pyrazole-5-carboxamido)-7-(3-methoxypropoxy)-1H-benzo[d]imidazol-1-yl)but-2-enyl)-2-(1-ethyl-3-methyl-1H-pyrazol-5-yl)-9H-pyrimido[4,5-b]indol-8-yloxy)ethoxy)ethoxy)ethoxy)propanoic acid], the EC50 (THP-1, Table 4C) fell in the range of 50 to 200 nM. Take `CCn1nc(C)cc1C(=O)Nc1nc2cc(C(N)=O)cc(C)c2n1C/C=C/Cn1c2ccc(C(N)=O)cc2c2cnc(-c3cc(C)nn3CC)c(F)c21` [Example S23, (E)-5-(4-(5-carbamoyl-2-(1-ethyl-3-methyl-1H-pyrazole-5-carboxamido)-7-methyl-1H-benzo[d]imidazol-1-yl)but-2-en-1-yl)-3-(1-ethyl-3-methyl-1H-pyrazol-5-yl)-4-fluoro-5H-pyrido[4,3-b]indole-8-carboxamide]: the EC50 by setting is: (THP-1, Table 4A) 100 to 500 nM; (THP-1, Table 4B) under 200 nM; (THP-1, Table 4C) 50 to 200 nM. For the compound `CCn1nc(C)cc1C(=O)Nc1nc2cc(C(N)=O)cc(OCCCNC(=O)NCC(=O)O)c2n1C/C=C/Cn1c2nc(-c3cc(C)nn3CC)ncc2c2cc(C(N)=O)cc(OCCCOC)c21` [Example S46, (E)-((3-((5-carbamoyl-1-(4-(6-carbamoyl-2-(1-ethyl-3-methyl-1H-pyrazol-5-yl)-8-(3-methoxypropoxy)-9H-pyrimido[4,5-b]indol-9-yl)but-2-en-1-yl)-2-(1-ethyl-3-methyl-1H-pyrazole-5-carboxamido)-1H-benzo[d]imidazol-7-yl)oxy)propyl)carbamoyl)glycine], the concentration giving a half-maximal response (EC50) (THP-1, Table 4C) was at most 50 nM. `CCn1nc(C)cc1C(=O)Nc1nc2cc(C(N)=O)cc(OCCCOC)c2n1C/C=C/Cn1c2nc(-c3cc(C)nn3CC)ncc2c2cc(C(N)=O)cc(OCCOCCOCCC(=O)O)c21` [Example S58, (E)-3-(2-(2-(6-carbamoyl-9-(4-(5-carbamoyl-2-(1-ethyl-3-methyl-1H-pyrazole-5-carboxamido)-7-(3-methoxypropoxy)-1H-benzo[d]imidazol-1-yl)but-2-enyl)-2-(1-ethyl-3-methyl-1H-pyrazol-5-yl)-9H-pyrimido[4,5-b]indol-8-yloxy)ethoxy)ethoxy)propanoic acid]: the concentration giving a half-maximal response (EC50) (THP-1, Table 4C) was in the range of 50 to 200 nM. Turning to `CCn1nc(C)cc1C(=O)Nc1nc2cc(C(N)=O)cc(OCCCO)c2n1C/C=C/Cn1c2nc(-c3cc(C)nn3CC)ncc2c2cc(C(N)=O)cc(OC)c21` [Example S16, (E)-9-(4-(5-carbamoyl-2-(1-ethyl-3-methyl-1H-pyrazole-5-carboxamido)-7-(3-hydroxypropoxy)-1H-benzo[d]imidazol-1-yl)but-2-en-1-yl)-2-(1-ethyl-3-methyl-1H-pyrazol-5-yl)-8-methoxy-9H-pyrimido[4,5-b]indole-6-carboxamide], the half-maximal effective concentration (EC50) is at most 100 nM (THP-1, Table 4A); under 200 nM (THP-1, Table 4B); at most 50 nM (THP-1, Table 4C).

`CCn1nc(C)cc1C(=O)Nc1nc2cc(C(N)=O)cc(OC)c2n1C/C=C/Cn1c2nc(-c3cc(C)nn3CC)ncc2c2cc(C(N)=O)cc(OCCC3CCN(CCCC(=O)O)CC3)c21` [Example S60, (E)-4-(4-(2-(6-carbamoyl-9-(4-(5-carbamoyl-2-(1-ethyl-3-methyl-1H-pyrazole-5-carboxamido)-7-methoxy-1H-benzo[d]imidazol-1-yl)but-2-enyl)-2-(1-ethyl-3-methyl-1H-pyrazol-5-yl)-9H-pyrimido[4,5-b]indol-8-yloxy)ethyl)piperidin-1-yl)butanoic acid]: the EC50 (THP-1, Table 4C) lay in the range of 50 to 200 nM. As to `CCn1nc(C)cc1C(=O)Nc1nc2cc(C(N)=O)cc(OCCCOC(=O)c3cc(C)nn3CC)c2n1C/C=C/Cn1c2nc(-c3cc(C)nn3CC)ncc2c2cc(C(N)=O)cc(OCCCOC)c21` [Example S21, (E)-3-((5-carbamoyl-1-(4-(6-carbamoyl-2-(1-ethyl-3-methyl-1H-pyrazol-5-yl)-8-(3-methoxypropoxy)-9H-pyrimido[4,5-b]indol-9-yl)but-2-en-1-yl)-2-(1-ethyl-3-methyl-1H-pyrazole-5-carboxamido)-1H-benzo[d]imidazol-7-yl)oxy)propyl 1-ethyl-3-methyl-1H-pyrazole-5-carboxylate], the EC50 (THP-1, Table 4A) was at most 100 nM; the EC50 (THP-1, Table 4B) was under 200 nM; the concentration for a half-maximal effect (EC50) (THP-1, Table 4C) was at most 50 nM.

`CCn1nc(C)cc1C(=O)Nc1nc2cc(C(N)=O)c3ccoc3c2n1C/C=C/Cn1c2nc(-c3cc(C)nn3CC)ncc2c2cc(C(N)=O)cc(OCCCOC)c21` [Example S68, (E)-1-(4-(6-carbamoyl-2-(1-ethyl-3-methyl-1H-pyrazol-5-yl)-8-(3-methoxypropoxy)-9H-pyrimido[4,5-b]indol-9-yl)but-2-en-1-yl)-2-(1-ethyl-3-methyl-1H-pyrazole-5-carboxamido)-1H-benzofuro[6,7-d]imidazole-5-carboxamide]: the EC50 (THP-1, Table 4A) is at most 100 nM.

In the case of `CCn1nc(C)cc1C(=O)Nc1nc2cc(C(N)=O)cc(OCCCOC(=O)c3cc(C)nn3CC)c2n1C/C=C/Cn1c2nc(-c3cc(C)nn3CC)ncc2c2cc(C(N)=O)cc(OC)c21` [Example S15, (E)-3-((5-carbamoyl-1-(4-(6-carbamoyl-2-(1-ethyl-3-methyl-1H-pyrazol-5-yl)-8-methoxy-9H-pyrimido[4,5-b]indol-9-yl)but-2-en-1-yl)-2-(1-ethyl-3-methyl-1H-pyrazole-5-carboxamido)-1H-benzo[d]imidazol-7-yl)oxy)propyl 1-ethyl-3-methyl-1H-pyrazole-5-carboxylate], the concentration for a half-maximal effect (EC50) is at most 100 nM (THP-1, Table 4A); under 200 nM (THP-1, Table 4B); at most 50 nM (THP-1, Table 4C). Regarding `CCn1nc(C)cc1C(=O)Nc1nc2cc(C(N)=O)c3ccoc3c2n1C/C=C/Cn1c2nc(-c3cc(C)nn3CC)ncc2c2cc(C(N)=O)cc(OC)c21` [Example S67, (E)-1-(4-(6-carbamoyl-2-(1-ethyl-3-methyl-1H-pyrazol-5-yl)-8-methoxy-9H-pyrimido[4,5-b]indol-9-yl)but-2-en-1-yl)-2-(1-ethyl-3-methyl-1H-pyrazole-5-carboxamido)-1H-benzofuro[6,7-d]imidazole-5-carboxamide], under “THP-1, Table 4A”, the concentration for a half-maximal effect (EC50) is at most 100 nM. Same read-out and setting: the value for `CCn1nc(C)cc1C(=O)Nc1nc2cc(C(N)=O)cc(C)c2n1C/C=C/Cn1c(NC(=O)c2cc(C)nn2CC)nc2cc(C(N)=O)c3ccoc3c21` [Example S31, (E)-1-(4-(5-carbamoyl-2-(1-ethyl-3-methyl-1H-pyrazole-5-carboxamido)-7-methyl-1H-benzo[d]imidazol-1-yl)but-2-en-1-yl)-2-(1-ethyl-3-methyl-1H-pyrazole-5-carboxamido)-1H-benzofuro[6,7-d]imidazole-5-carboxamide] was at most 100 nM. `CCn1nc(C)cc1C(=O)Nc1nc2cc(C(N)=O)cc(OCCCO)c2n1C/C=C/Cn1c2nc(-c3cc(C)nn3CC)ncc2c2cc(C(N)=O)cc(OCCCOC)c21` [Example S22, (E)-9-(4-(5-carbamoyl-2-(1-ethyl-3-methyl-1H-pyrazole-5-carboxamido)-7-(3-hydroxypropoxy)-1H-benzo[d]imidazol-1-yl)but-2-en-1-yl)-2-(1-ethyl-3-methyl-1H-pyrazol-5-yl)-8-(3-methoxypropoxy)-9H-pyrimido[4,5-b]indole-6-carboxamide]: the EC50 is, setting by setting: (THP-1, Table 4A) at most 100 nM; (THP-1, Table 4B) under 200 nM; (THP-1, Table 4C) at most 50 nM.

For the compound `CCn1nc(C)cc1C(=O)Nc1nc2cc(C(N)=O)cc(OC)c2n1C/C=C/Cn1c2nc(-c3cc(C)nn3CC)ncc2c2cc(C(N)=O)cc(OCCC3CCN(C(=O)OCC(=O)O)CC3)c21` [Example S61], the EC50 (THP-1, Table 4C) fell in the range of 50 to 200 nM.

With `CCn1nc(C)cc1C(=O)Nc1nc2cc(C(N)=O)cc(OCCCNC(=O)[C@@H](N)CC(=O)O)c2n1C/C=C/Cn1c2nc(-c3cc(C)nn3CC)ncc2c2cc(C(N)=O)cc(OCCCOC)c21` [Example S47, (S,E)-3-amino-4-((3-((5-carbamoyl-1-(4-(6-carbamoyl-2-(1-ethyl-3-methyl-1H-pyrazol-5-yl)-8-(3-methoxypropoxy)-9H-pyrimido[4,5-b]indol-9-yl)but-2-en-1-yl)-2-(1-ethyl-3-methyl-1H-pyrazole-5-carboxamido)-1H-benzo[d]imidazol-7-yl)oxy)propyl)amino)-4-oxobutanoic acid], the concentration giving a half-maximal response (EC50) (THP-1, Table 4C) lay within 50 to 200 nM. For `CCn1nc(C)cc1C(=O)Nc1nc2cc(C(N)=O)cc(C)c2n1C/C=C/Cn1c2ccc(C(N)=O)cc2c2cc(F)c(-c3cc(C)nn3CC)nc21` [Example S24, (E)-9-(4-(5-carbamoyl-2-(1-ethyl-3-methyl-1H-pyrazole-5-carboxamido)-7-methyl-1H-benzo[d]imidazol-1-yl)but-2-en-1-yl)-2-(1-ethyl-3-methyl-1H-pyrazol-5-yl)-3-fluoro-9H-pyrido[2,3-b]indole-6-carboxamide], the concentration giving a half-maximal response (EC50) runs as follows: (THP-1, Table 4A) at most 100 nM; (THP-1, Table 4B) under 200 nM; (THP-1, Table 4C) at most 50 nM. For the compound `CCn1nc(C)cc1C(=O)Nc1nc2cc(C(N)=O)cc(OCCCOC)c2n1C/C=C/Cn1c2nc(-c3cc(C)nn3CC)ncc2c2cc(C(N)=O)cc(OCCCNC(=O)OCCC(=O)O)c21` [Example S56, (E)-3-(3-(6-carbamoyl-9-(4-(5-carbamoyl-2-(1-ethyl-3-methyl-1H-pyrazole-5-carboxamido)-7-(3-methoxypropoxy)-1H-benzo[d]imidazol-1-yl)but-2-enyl)-2-(1-ethyl-3-methyl-1H-pyrazol-5-yl)-9H-pyrimido[4,5-b]indol-8-yloxy)propylcarbamoyloxy)propanoic acid], the concentration giving a half-maximal response (EC50) (THP-1, Table 4C) is at most 50 nM.

These data come from patent US11596692B1 (Incyte Corporation, priority 2018, dated 2023).
